In patent US9868748B2, “Thiazolopyrrolidine inhibitors of ROR- γ” (Vitae Pharmaceuticals, Inc., priority 2013, dated 2018):

Tests used:
[1] = target: recombinant RORγ Ligand Binding Domain (LBD) protein (Homo sapiens (Human), UniProt P51449); test: Radio-Ligand RORγ Binding Assay (Assay 1); conditions: competition with 25-hydroxy [26,27-3H]-cholesterol, SPA; Table 9; read-out: RORγ Binding Ki Range*
Outline: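 Recombinant human RORγ ligand binding domain (6×His-GST fusion, 24 nM stock) competed with tritiated 25-hydroxycholesterol (8.6 nM stock) in HEPES buffer pH 7.4 with detergents and DTT; poly-Lys YSi SPA beads, room temperature, tritium SPA signal. Four-parameter IC50 from semi-log dilutions, normalised to DMSO and 10 μM T0901317, then Ki via KD equation.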

[2] = target: full-length RORγt in Jurkat cells (Homo sapiens (Human), UniProt P51449); test: RORγt 5xRORE Assay in Jurkat Cells (Assay 2); format: cell-based; conditions: Nanoluc luciferase reporter, 16-18 hrs, Table 9, read-out: RORγt5X IC50 Range*
full-length RORγt in Jurkat cells, sequence (P51449 other isoform, or with tags, fused parts or gaps): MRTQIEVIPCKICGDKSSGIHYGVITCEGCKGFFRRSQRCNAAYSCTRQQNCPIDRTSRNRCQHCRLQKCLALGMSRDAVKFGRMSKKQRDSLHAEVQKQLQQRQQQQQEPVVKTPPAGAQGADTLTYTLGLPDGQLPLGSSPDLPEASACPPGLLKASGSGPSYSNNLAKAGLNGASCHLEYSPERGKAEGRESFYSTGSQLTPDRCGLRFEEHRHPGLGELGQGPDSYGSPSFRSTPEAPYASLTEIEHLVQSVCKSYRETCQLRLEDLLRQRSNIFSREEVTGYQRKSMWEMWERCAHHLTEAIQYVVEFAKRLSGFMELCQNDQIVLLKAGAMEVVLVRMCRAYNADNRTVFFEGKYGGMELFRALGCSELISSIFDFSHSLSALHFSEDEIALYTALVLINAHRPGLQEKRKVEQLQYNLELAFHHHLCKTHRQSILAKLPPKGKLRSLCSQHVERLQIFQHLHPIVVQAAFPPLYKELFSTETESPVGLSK
Outline: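 Inverse agonist activity was read as NanoGlo luminescence from conditioned medium after 16–18 h compound exposure (37 °C, 0.1% DMSO final). The cells were Jurkat, transiently transfected with RORγt and a secNluc reporter carrying five RORE repeats, seeded 80,000 per well in delipidated-serum RPMI.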

recombinant RORγ Ligand Binding Domain (LBD) protein, sequence (P51449 269-508): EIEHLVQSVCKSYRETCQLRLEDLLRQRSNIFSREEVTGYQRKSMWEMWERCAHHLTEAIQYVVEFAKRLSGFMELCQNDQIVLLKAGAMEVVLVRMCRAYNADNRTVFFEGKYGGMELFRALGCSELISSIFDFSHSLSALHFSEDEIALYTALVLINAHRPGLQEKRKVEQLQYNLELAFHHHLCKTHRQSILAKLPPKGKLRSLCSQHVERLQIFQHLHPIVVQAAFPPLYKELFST

Row | Ki [1] | IC50 [2] | SMILES
1 | < 0.1 µM | > 1 µM | CCS(=O)(=O)c1ccc(CC(=O)Nc2nc3c(s2)CN(CC2CCS(=O)(=O)CC2)[C@H]3C(C)C)cc1
2 | < 0.1 µM | 0.1 to 1 µM | CCS(=O)(=O)c1ccc(CC(=O)Nc2nc3c(s2)CN(CC2CN(CC(F)(F)F)C2)[C@H]3C(C)C)cc1
3 | < 0.1 µM | > 1 µM | CCS(=O)(=O)c1ccc(CC(=O)Nc2nc3c(s2)CN(C[C@@H]2CC[C@H](C(F)(F)F)OC2)[C@H]3C(C)C)cc1 (relative stereo)
4 | < 0.1 µM | > 1 µM | CCS(=O)(=O)c1ccc(CC(=O)Nc2nc3c(s2)CN(C[C@@H]2CC[C@H](C(F)(F)F)N(C)C2)[C@H]3C(C)C)cc1 (relative stereo)
5 | < 0.1 µM | > 1 µM | CCS(=O)(=O)c1ccc(CC(=O)Nc2nc3c(s2)CN(C[C@H]2CC[C@@H](C(F)(F)F)N(C)C2)[C@H]3C(C)C)cc1 (relative stereo)
6 | < 0.1 µM | > 1 µM | CCS(=O)(=O)c1ccc(CC(=O)Nc2nc3c(s2)CN(C[C@@H]2CC[C@H](C(F)(F)F)N(C4CC4)C2)[C@H]3C(C)C)cc1 (single isomer, unassigned)
7 | < 0.1 µM | > 1 µM | CCS(=O)(=O)c1ccc(CC(=O)Nc2nc3c(s2)CN(C[C@H]2CC[C@@H](C(F)(F)F)N(C4CC4)C2)[C@H]3C(C)C)cc1 (single isomer, unassigned)
8 | < 0.1 µM | > 1 µM | CCS(=O)(=O)c1ccc(CC(=O)Nc2nc3c(s2)CN(C[C@H]2CC[C@H](C(F)(F)F)N(C4CC4)C2)[C@H]3C(C)C)cc1 (single isomer, unassigned)
9 | < 0.1 µM | > 1 µM | CCS(=O)(=O)c1ccc(CC(=O)Nc2nc3c(s2)CN(C[C@@H]2CC[C@@H](C(F)(F)F)N(C4CC4)C2)[C@H]3C(C)C)cc1 (single isomer, unassigned)
10 | < 0.1 µM | < 0.1 µM | CCS(=O)(=O)c1ccc(CC(=O)Nc2nc3c(s2)CN(C[C@H]2CC[C@@](O)(C(F)(F)F)CC2)[C@H]3C(C)C)cc1 (single isomer, unassigned)
11 | < 0.1 µM | < 0.1 µM | CCS(=O)(=O)c1ccc(CC(=O)Nc2nc3c(s2)CN(C[C@H]2CC[C@](O)(C(F)(F)F)CC2)[C@H]3C(C)C)cc1 (single isomer, unassigned)
12 | < 0.1 µM | > 1 µM | CCS(=O)(=O)c1ccc(CC(=O)Nc2nc3c(s2)CN(C[C@@H]2CCCOC2)[C@H]3C(C)C)cc1 (single isomer, unassigned)
13 | < 0.1 µM | > 1 µM | CCS(=O)(=O)c1ccc(CC(=O)Nc2nc3c(s2)CN(C[C@H]2CCCOC2)[C@H]3C(C)C)cc1 (single isomer, unassigned)
14 | < 0.1 µM | < 0.1 µM | CCS(=O)(=O)c1ccc(CC(=O)Nc2nc3c(s2)CN(C[C@H]2CC[C@H](C(F)(F)F)CC2)[C@H]3C(C)C)nc1 (single isomer, unassigned)
15 | < 0.1 µM | > 1 µM | CCS(=O)(=O)c1ccc(CC(=O)Nc2nc3c(s2)CN(C[C@H]2CC[C@@H](C(F)(F)F)N(C)C2)C3C(C)C)cc1 (single isomer, unassigned)
16 | < 0.1 µM | > 1 µM | CCS(=O)(=O)c1ccc(CC(=O)Nc2nc3c(s2)CN(C[C@H]2CC[C@@H](C(=O)OC)CC2)[C@H]3C(C)C)cc1 (single isomer, unassigned)

More lines, now with the values behind:

Row | SMILES | Ki [1] | IC50 [2]
17 | CCS(=O)(=O)c1ccc(CC(=O)Nc2nc3c(s2)CN(c2nc4cccnc4s2)[C@H]3C(C)C)cc1 | < 0.1 µM | > 1 µM
18 | CCS(=O)(=O)c1ccc(CC(=O)Nc2nc3c(s2)CN(Cc2ccc(Cl)cc2)[C@H]3C(C)C)c(C#N)c1 | < 0.1 µM | < 0.1 µM
19 | CCS(=O)(=O)c1ccc(CC(=O)Nc2nc3c(s2)CN(Cc2ccc(Cl)cc2)[C@H]3C(C)C)c(Cl)c1 | < 0.1 µM | < 0.1 µM
20 | CCS(=O)(=O)c1ccc(CNC(=O)c2nc3c(s2)CN(C[C@H]2CC[C@H](C(F)(F)F)CC2)[C@H]3C(C)C)nc1 | 0.1 to 1 µM | 0.1 to 1 µM
21 | CCS(=O)(=O)c1ccc(CC(=O)Nc2nc3c(s2)CN(Cc2ccc(=O)n(C(F)F)c2)[C@H]3C(C)C)cc1 | < 0.1 µM | > 1 µM
22 | CCS(=O)(=O)c1ccc(CC(=O)Nc2nc3c(s2)CN(Cc2ccc(F)cc2)[C@@H]3C(C)C)cc1 | < 0.1 µM | > 1 µM
23 | CCS(=O)(=O)c1ccc(CC(=O)Nc2nc3c(s2)CN(Cc2ccc(OC)cc2)[C@@H]3C(C)C)cc1 | < 0.1 µM | > 1 µM
24 | CCS(=O)(=O)c1ccc(CC(=O)Nc2nc3c(s2)CN(Cc2cccc(C(F)(F)F)c2)[C@@H]3C(C)C)cc1 | < 0.1 µM | > 1 µM
25 | Cc1cc(C(F)(F)F)nc(N2Cc3sc(NC(=O)Cc4ccc(S(C)(=O)=O)cc4)nc3[C@H]2C(C)C)n1 | 0.1 to 1 µM | > 1 µM
26 | CCS(=O)(=O)c1ccc(CC(=O)Nc2nc3c(s2)CN(c2nc(C)cc(C(F)(F)F)n2)[C@@H]3C(C)C)cc1 | < 0.1 µM | > 1 µM
27 | CCS(=O)(=O)c1ccc(CC(=O)Nc2nc3c(s2)CN(C[C@H]2C[C@H](C#N)C2)[C@H]3C(C)C)cc1 (relative stereo) | < 0.1 µM | > 1 µM
28 | CCS(=O)(=O)c1ccc(CC(=O)Nc2nc3c(s2)CN([C@H]2COc4cc(Cl)ccc42)[C@H]3C(C)C)cc1 (relative stereo) | < 0.1 µM | < 0.1 µM
29 | CCS(=O)(=O)c1ccc(CC(=O)Nc2nc3c(s2)CN(C[C@H]2CCCCO2)[C@H]3C(C)C)cc1 (relative stereo) | < 0.1 µM | > 1 µM
30 | CCS(=O)(=O)c1ccc(CNC(=O)c2nc3c(s2)CN(C[C@H]2CC[C@@H](C(F)(F)F)CC2)[C@H]3C(C)C)cc1 (relative stereo) | < 0.1 µM | > 1 µM
31 | CCS(=O)(=O)c1ccc(CC(=O)Nc2nc3c(s2)CN(C[C@@H]2CCCCO2)[C@H]3C(C)C)cc1 (relative stereo) | < 0.1 µM | > 1 µM
32 | CCS(=O)(=O)c1ccc(CNC(=O)c2nc3c(s2)CN(C[C@H]2CC[C@H](C(F)(F)F)CC2)[C@H]3C(C)C)cc1 (relative stereo) | < 0.1 µM | 0.1 to 1 µM
33 | CCS(=O)(=O)c1ccc(CNC(=O)c2nc3c(s2)CN(C[C@H]2CN(C(=O)OC(C)(C)C)CCO2)[C@H]3C(C)C)cc1 (relative stereo) | < 0.1 µM | 0.1 to 1 µM

Row | SMILES | Ki [1] | IC50 [2]
34 | CCS(=O)(=O)c1ccc(CC(=O)Nc2nc3c(s2)CN(C[C@H]2CC[C@](C)(C#N)CC2)[C@H]3C(C)C)nc1 (single isomer, unassigned) | < 0.1 µM | > 1 µM
35 | CCS(=O)(=O)c1ccc(CC(=O)Nc2nc3c(s2)CN(C[C@H]2CC[C@@](C)(C#N)CC2)[C@H]3C(C)C)nc1 (single isomer, unassigned) | < 0.1 µM | 0.1 to 1 µM
36 | CCS(=O)(=O)c1ccc(CC(=O)Nc2nc3c(s2)CN(C[C@H]2CC[C@](C)(OC)CC2)[C@H]3C(C)C)nc1 (single isomer, unassigned) | < 0.1 µM | < 0.1 µM
37 | CCS(=O)(=O)c1ccc(CC(=O)Nc2nc3c(s2)CN(C[C@H]2CC[C@@H](C(F)(F)F)O2)[C@H]3C(C)C)nc1 (single isomer, unassigned) | < 0.1 µM | > 1 µM
38 | CCS(=O)(=O)c1ccc(CC(=O)Nc2nc3c(s2)CN(C[C@H]2CC[C@@H](C(F)(F)F)OC2)[C@H]3C(C)C)nc1 (single isomer, unassigned) | < 0.1 µM | 0.1 to 1 µM
39 | CCS(=O)(=O)c1ccc(CC(=O)Nc2nc3c(s2)CN(C[C@@H]2CC[C@H](C(F)(F)F)O2)[C@H]3C(C)C)nc1 (single isomer, unassigned) | < 0.1 µM | > 1 µM
40 | CCS(=O)(=O)c1ccc(CC(=O)Nc2nc3c(s2)CN([C@@H](C)c2c(F)cc(Cl)cc2F)[C@H]3C(C)C)cc1 (single isomer, unassigned) | < 0.1 µM | < 0.1 µM
41 | CC(C)[C@H]1c2nc(NC(=O)Cc3ccc(S(C)(=O)=O)cc3)sc2CN1[C@H](C)c1ccc(C(F)(F)F)nc1 (single isomer, unassigned) | < 0.1 µM | < 0.1 µM
42 | CC(C)[C@H]1c2nc(NC(=O)Cc3ccc(S(C)(=O)=O)cc3)sc2CN1[C@@H](C)c1ccc(C#N)c(F)c1 (single isomer, unassigned) | < 0.1 µM | < 0.1 µM
43 | CC(C)[C@H]1c2nc(NC(=O)Cc3ccc(S(C)(=O)=O)cc3)sc2CN1[C@@H](C)c1ccc(C(F)(F)F)nc1 (single isomer, unassigned) | < 0.1 µM | < 0.1 µM
44 | CC(C)[C@H]1c2nc(NC(=O)Cc3ccc(S(C)(=O)=O)cc3)sc2CN1[C@H](C)c1ccc(Cl)cn1 (single isomer, unassigned) | < 0.1 µM | 0.1 to 1 µM
45 | CCS(=O)(=O)c1ccc(CC(=O)Nc2nc3c(s2)CN([C@H](C)c2ccc(C#N)cn2)[C@H]3C(C)C)cc1 (single isomer, unassigned) | < 0.1 µM | < 0.1 µM
46 | CC(C)[C@H]1c2nc(NC(=O)Cc3ccc(S(C)(=O)=O)cc3)sc2CN1[C@@H](C)c1ccc(Cl)cn1 (single isomer, unassigned) | < 0.1 µM | 0.1 to 1 µM
47 | CCS(=O)(=O)c1ccc(CC(=O)Nc2nc3c(s2)CN([C@@H](C)c2ccc(C#N)cn2)[C@H]3C(C)C)cc1 (single isomer, unassigned) | < 0.1 µM | < 0.1 µM
48 | CCS(=O)(=O)c1ccc(CC(=O)Nc2nc3c(s2)CN([C@H](C)Cc2ccc(Cl)cc2)[C@H]3C(C)C)cc1 (single isomer, unassigned) | < 0.1 µM | > 1 µM
49 | CC(C)[C@@H]1c2nc(NC(=O)Cc3ccc(S(C)(=O)=O)cc3)sc2CN1[C@H](C)c1ccc(C(F)(F)F)cc1 (single isomer, unassigned) | 0.1 to 1 µM | 0.1 to 1 µM
